We go through two molecules from US20260048051A1, “TREATMENT OF INFLAMMATORY BOWEL DISEASE” (Atomwise Inc., priority 2024, published 2026).

One data set deals with IL-6 induced pSTAT3. As to the kind of experiment: IL-6 induced pSTAT3 assay in TF-1 cells. It counts as cell-based. As to conditions: Homo sapiens, read-out: Cellular selectivity (IL-6/pSTAT3). As to the method: The following example describes the IL-6 induced pSTAT3 assay used to determine the cellular selectivity (IL-6/pSTAT3) of the TYK2 inhibitors.
TF-1 (ATCC®, CRL-2003™) cells were cultured in RPMI 1640 Medium, with GlutaMAX™ Supplement, HEPES for Cell Culture (Life Technologies, 72400047), 10% Fetal Bovine Serum (Life Technologies, 26400044), 2 ng/mL human recombinant GM-CSF (Life Technologies, PHC2013), 1 mM Sodium pyruvate (Life Technologies, 11360039), 1% MEM NEAA (Life Technologies, 11140-035), 1% Penicillin/Streptomycin (Life Technologies, 15140-122).
TF-1 (70×10^6) cells were starved overnight in T150 flasks (Opti-MEM™ I Reduced Serum Medium, no phenol red (Life Technologies, 11058-021), 1 mM Na pyruvate (Life Technologies, 11360039), 1% MEM NEAA (Life Technologies, 11140-035), and 1% Penicillin/Streptomycin (Life Technologies, 15140-122)) then seeded into 96-well TPP plates (150 000 cell/well) and incubated with test compounds (Final Concentration [nM]10000-0.05) for 30 minutes at 37° C. […] Stimulation was terminated by addition of lysis buffer (MSD K150SVD) and pSTAT3 detection was measured with Phospho-STAT3 (Tyr705) Kit MSD K150SVD)) according to manufacturer's instruction. Briefly, cell lysates were added to pre-blocked plates, sealed, and shake for 1 hour at room temperature. Plates were then washed and incubated with detection antibody for 1 hour at room temperature. After washing, Read Buffer was added, and plates were read on MSD instrument (Model 1300 MSD Quickplex SQ120).

Data set [1] is described as follows: Log D (octanol / phosphate buffer pH 7.4). It counts as physicochemical. As to conditions: for logD at 1 h: octanol/potassium phosphate buffer, pH 7.4, octanol / potassium phosphate buffer pH 7.4. As to the method:
10 μL of 10 mM stock solutions was placed into a 96-well plate, and 300 μL of octanol was subsequently added. The plate was sealed and agitated on a plate shaker for 5 minutes, followed by centrifugation at 2000 rpm for 5 minutes. The seal was removed and 600 μL of potassium phosphate buffer (pH 7.4) was added. The plate was sealed and the two phases were mixed by shaking vigorously on a plate shaker for 1 hour at 25° C. The plate was then centrifuged for 2000 rpm for 5 minutes and the seal was removed. 10 μL of water was aspirated out of the water phase samples from the water phase plate and mixed with 10 μL of water (1:2 dilution). 180 μL of 50% Ethanol was added into the water phase sample plate (1:10 dilution) to achieve a 1:20 dilution. 50 μL of water phase samples were then mixed with 100 μL of 50% Ethanol (containing IS) into the water phase sample plate to achieve a 1:60 dilution. 10 μL from the octanol phase (the upper phase) was transferred into a new 96-well plate and 190 μL of 50% Ethanol was added (1:20 dilution). 10 μL of the 1:20 diluted octanol samples was transferred into a new 96 deep-well plate and 390 μL of 50% Ethanol (1:40 dilution) was added to achieve a 1:800 dilution. 50 μL of the 1:800 diluted octanol samples were transferred into a new 96-well plate and 100 μL of 50% Ethanol with IS was added to achieve a 1:2400 dilution. The samples were subsequently analyzed with LCMS.

Data set [2] is described as follows: Mouse plasma pharmacokinetics, PO 5 mg/kg. It counts as in vivo. As to the method:
The following example describes the methods used to evaluate the pharmacokinetics of TYK2 inhibitors in vivo following dosing of a compound of the invention.
The pharmacokinetics of test compounds were evaluated in either male CD-1 mice or male C57BL/6 mice when administered by oral gavage and IV bolus injection. The animals were allowed free access to food and water before administration. The plasma samples were analyzed by LC-MS/MS and the concentration of test compound at each time point was determined by linear regression. Pharmacokinetic parameters were calculated from the plasma concentrations by non-compartmental modeling using WinNonlin 8.2.
Oral composition. To prepare a pharmaceutical composition for oral delivery, the test articles described herein were dissolved in DMSO and then mixed with necessary volume of PEG400 followed by […] in water or 50% Kolliphor HS 15 in saline to provide the final concentrations of 0.5 mg/mL or 1 mg/mL (Table 8). The resultant mixtures were suitable for oral administration.
The PK parameters measured in mouse plasma after treatment with TYK2 inhibitor compounds via PO (oral administration) at 5 mg/kg are summarized below in Tables 9-11.

Data set [3] in a line: Brain exposure pharmacokinetics in rats. It counts as in vivo. As to conditions: male Sprague Dawley rats, oral gavage 10 mg/kg. As to the method:
The brain exposure of exemplary compounds, e.g., 1, 2, and 4 were evaluated in male Sprague Dawley rats after oral gavage administration at 10 mg/kg. The formulation was 5% DMSO+10% PEG400 in saline. Rats were fasted overnight with food returned 4 hours post-dose. CSF was collected by direct needle puncture into the cisterna magna.
For both rat and mouse studies, brain tissue was washed with 3 volumes of saline prior to homogenization. Brain tissue was homogenized with 3 volumes (v/w) of phosphate buffered saline. Plasma, brain homogenate, and CSF samples (rat only) were analyzed by LC-MS/MS and the concentration of test compound at each time point was determined by linear regression.
Pharmacokinetic parameters were calculated from the plasma, brain, and CSF concentrations by non-compartmental modeling using WinNonlin 8.2.

The nature of data set [4]: GLP in vivo assay of genotoxicity.

Entries after “also recorded” stand apart in the source; their conditions may differ. Where two headings read alike, the source gives them in different places.

Broadly, the LogD is the decadic logarithm of the distribution of all forms, ionised or not, between an organic phase and buffer at a given pH. A lower LogD goes with a more hydrophilic compound. As usually defined, the logD is lipophilicity at a set pH, counting ionised and neutral species. For `C[C@@H](c1ccc(Nc2cc(Nc3ncccc3S(C)(=O)=O)ncn2)nc1)N1CC2(COC2)C1` [Compound 1, (S)—N^4-(5-(1-(2-oxa-6-azaspiro[3.3]heptan-6-yl)ethyl)pyridin-2-yl)-N^6-(3-(methylsulfonyl)pyridin-2-yl)pyrimidine-4,6-diamine], in the data set on IL-6 induced pSTAT3, the IC50 was greater than 10 µM. Besides, in data set [1] (octanol / potassium phosphate buffer pH 7.4), the log distribution coefficient (LogD) turned out to be 1.33. Moreover, the log distribution coefficient (logD) at 1 h in data set [1] was roughly 1.3. Also, in data set [2], the “Half-life (t1/2)” value is recorded as “†† (††: 1.0-1.5)”, the “Maximum plasma concentration (Cmax)” value is listed as “† (†: <800)” and the “Total systemic exposure (AUCinf)” value was “†† (††: 1000-2000)”. Further, in data set [3], the “Brain Kpu, u” value is “†† (†† 0.1-0.2 u)”.

With `C[C@@H](c1ccc(Nc2cc(Nc3ncc(F)cc3S(C)(=O)=O)ncn2)nc1)N1CC2(COC2)C1` [Compound 2, (S)—N^4-(5-(1-(2-oxa-6-azaspiro[3.3]heptan-6-yl)ethyl)pyridin-2-yl)-N^6-(5-fluoro-3-(methylsulfonyl)pyridin-2-yl)pyrimidine-4,6-diamine], the IC50 with IL-6 induced pSTAT3 is greater than 10 µM. The log distribution coefficient (logD) at 1 h in data set [1] is roughly 1.6. Also, in data set [2], the “Half-life (t1/2)” value is “†† (††: 1.0-1.5)”, the “Maximum plasma concentration (Cmax)” value is reported as “††† (†††: >1500)” and the “Total systemic exposure (AUCinf)” value was “††† (†††: >2000)”. For the same molecule, the “Brain Kpu, u” value in data set [3] is on record as “† († <0.1 u)”. Moreover, the genotoxicity entry in data set [4] is listed as “substantially no genotoxicity; also recorded: virtually no genotoxicity”. In data set [4] (listed as compound 2), the genotoxicity entry was “substantially non-genotoxic”.
